Patent US5089623A, “Certain imidate insecticides” (Imperial Chemical Industries Plc, priority 1990, dated 1992)

Key:
Type in all cases: in vivo
[1] = test system: Tobacco Budworm [Heliothis virescens (Fabricius)] eggs; test: Tobacco budworm egg test (TBW-E); conditions: percent in solution
[2] = test system: Maize weevil [Sitophilus Zeamais (Motschulsky)]; test: Maize weevil test (MW); conditions: adult weevils, treated corn seeds, 48 hours, percent in solution
Experimental: The compounds in Tables 1 and 2 above were tested for insecticidal activity using the following testing procedures. LC50 values, based on the results of these tests and calculated according to dosage-mortality curves, are expressed in Table 3.
Maize weevil [Sitophilus Zeamais (Motschulsky)]
Test compounds were diluted in a 50:50 acetone:water solution. Four corn seeds [Zea mays (L.)] which had been immersed in test solutions for 2-3 seconds and allowed to dry were placed in containers together with 10 adult weevils. The containers were covered and kept at a temperature of about 25° C. Mortality was recorded after 48 hours. Test concentrations ranged from 0.01% down to that at which 50% mortalilty occurred. The LC50 values are expressed below in Table 3 under the heading "MW" in terms of percent of the test compound in solution.

[3] = test system: Housefly [Musca domestica]; test: Housefly insecticidal test (HF); conditions: per 25 female houseflies, 48 hours
[4] = test system: Cabbage Looper [Trichoplusia ni (Hubner)]; test: Cabbage looper test (CL); conditions: second-instar larvae, 3-5 days, percent in solution

Row | Structure (SMILES) | LC50 TBW E [1] [%] | LC50 MW [2] [%] | LC50 HF [3] [µg] | LC50 CL [4] [%]
1 | CC(C)C(=Nc1ccc(C(F)(F)F)cc1Cl)OCc1cccc(Oc2ccc(F)cc2)c1 [Compound 427] | > 0.1 | > 0.01 | > 100 | < 0.1
2 | CC(C)C(=Nc1ccc(C#N)cc1)OCc1ccc(F)c(Oc2ccc(Cl)cc2)c1 [Compound 392] | 0.039 | > 0.01 | < 100 | 0.00034
3 | CC(C)C(=Nc1ccc(C(C)(C)C)cc1)OCc1ccc(F)c(Oc2ccc(Cl)cc2)c1 [Compound 301] | > 0.1 | > 0.01 | > 100 | 0.008
4 | CCc1ccc(N=C(OCc2cccc(Oc3ccc(Cl)cc3)n2)C(C)C)cc1 [Compound 552] | > 0.1 | > 0.01 | > 100 | 0.0016
5 | CC(C)C(=Nc1ccc(F)c(Cl)c1)OCc1ccnc(Oc2ccccc2)c1 [Compound 510] | > 0.1 | > 0.01 | 54 | 0.017
6 | CC(C)C(=Nc1ccc(Cl)cc1)OCc1cccc(Oc2ccccc2)n1 [Compound 553] | 0.1 | > 0.01 | < 100 | < 0.1
7 | CC(C)C(=Nc1cccc(F)c1)OCc1ccc(F)c(Oc2ccc(F)cc2)c1 [Compound 342] | 0.04 | > 0.01 | 4.1 | 0.0008
8 | CC(C)C(=Nc1ccc(OCC(F)(F)F)c(Cl)c1)OCc1cccc(Oc2ccc(Cl)cc2)c1 [Compound 421] | < 0.1 | > 0.01 | > 100 | 0.002
9 | COc1ccc(N=C(OCc2ccc(F)c(Oc3ccc(Cl)cc3)c2)C(C)C)cc1Cl [Compound 410] | > 0.1 | > 0.01 | < 100 | > 0.1
10 | CC(C)C(=Nc1ccc(Br)c(Br)c1)OCc1ccc(F)c(Oc2ccc(F)cc2)c1 [Compound 383] | 0.038 | > 0.01 | < 100 | 0.00029
11 | CC(C)C(=Nc1ccc(F)c(Cl)c1)OCc1ccnc(Oc2ccc(F)cc2)c1 [Compound 511] | > 0.1 | > 0.01 | 89 | 0.0012
12 | CC(C)C(=Nc1cc(F)c(Cl)cc1Cl)OCc1ccc(F)c(Oc2ccc(F)cc2)c1 [Compound 292] | 0.05 | > 0.01 | 41 | 0.00075
13 | CC(C)C(=Nc1ccc(F)c(Cl)c1)OCc1cccc(Oc2c(F)c(F)c(F)c(F)c2F)c1 [Compound 460] | > 0.1 | > 0.01 | > 100 | 0.02
14 | CC(C)C(=Nc1cccc(C(F)(F)F)c1)OCc1coc(Cc2ccccc2)c1 [Compound 482] | > 0.1 | > 0.01 | 36 | 0.01
15 | CC(C)C(=Nc1cccc(I)c1)OCc1cccc(Oc2ccc(Cl)cc2)c1 [Compound 389] | > 0.1 | > 0.01 | < 100 | 0.00069
16 | CCOc1ccc(N=C(OCc2ccc(F)c(Oc3ccc(Cl)cc3)c2)C(C)C)cc1 [Compound 372] | > 0.1 | > 0.01 | > 100 | > 0.1
17 | CC(C)C(=Nc1ccc(F)c(I)c1)OCc1cccc(Oc2ccc(Cl)cc2)c1 [Compound 413] | 0.04 | > 0.01 | < 100 | 0.0007
18 | COc1ccc(N=C(OCc2ccc(F)c(Oc3ccccc3)c2)C(C)C)cc1F [Compound 435] | 0.04 | > 0.01 | < 100 | 0.002
